Results taken from patent US3959300A, “Novel indolobenzazepine derivatives, useful as tranquilizers” (priority 1974, dated 1976).

Assays:
Assay type in all cases: in vivo
[1] = tested on: approach-avoidance ("conflict") situation; test: Rat Conflict (Approach-Avoidance) Test; conditions: for Conflict (rat) MED / minimal effective dose: po, reexposed after 1 or 2 hours, rat; for minimal effective dose: read-out: Conflict (rat) MED
Protocol: Results given in: mg/kg po/rat
Rat Conflict (Approach-Avoidance) Test: Food deprived rats are trained to pass from one compartment to an adjacent one to obtain food. The training consists of three exposures to the test situation on day one of the experiment. The rats are given limited (1-2 hr) free access to food in their home cages on day one and are then food deprived for at least 18 hours. On day two of the experiment, the rats are given a control exposure to the test situation followed by a second exposure after 1/2 to 1 hour in which they are shocked after crossing and eating. Groups of 6-8 rats are then dosed orally with solvent or test compound and then reexposed to the test situation after 1 or 2 hours.
This effect is dose-related (and the MED is the minimum dose at which this effect is obtained); rats dosed with solvent only consistently show a high level of fear as evidenced by decreased mobility and absence of feeding when placed in the test situation after receiving a shock.

taming = test: Rhesus Monkey Taming Effects; conditions: po, rhesus monkey; for minimal effective dose: Macaca mulatta, read-out: Taming (monkey) MED
Protocol: Results given in: mg/kg po/monkey
Rhesus Monkey Taming Effects: Compounds are administered orally to groups of six rhesus monkeys. The behavior of the animals is then evaluated by observational means. Taming effects are determined by the ability of the observer to approach and touch the monkey. Compounds with major tranquilizer activity in man can produce a state of passive tameness in the rhesus monkey wherein it can be touched without provoking any of the threatening or aggressive behavior seen in the normal animal. The MED is the minimal oral dose at which some taming effect can be observed.

[2] = tested on: Conditioned Avoidance Response; test: Rat Conditioned Avoidance Response (C.A.R.); conditions: po, rat, tested 1, 2, and 4 hours after administration; for ED50: read-out: C.A.R. (rat) ED50
Protocol: (§1) Results given in: mg/kg po/mouse mg/kg po/rat
(§2) Mouse and Rat Conditioned Avoidance Response: Mice and rats are trained to jump out of a pit onto a ledge to avoid shock when presented with a light and sound conditioned stimulus. The animals are tested 1, 2, and 4 hours after administration of the test compound. Three to 4 dose levels and groups of 4-8 animals/dose are used. The ED50 is the dose producing a block of the C.A.R. in 50% of the animals. Blocking of the C.A.R. at non-toxic doses appears to correlate with major tranquilizer activity in man.

locomotor activity = test: Mouse Screen (decrease in locomotor activity); conditions: po, mouse, lowest dose producing obvious decrease in locomotor activity; for minimal effective dose: read-out: Screen (mouse) MED
Description: (§3) Results given in: mg/kg po/mouse
Mouse Screen: The minimal effective dose (MED) is the lowest oral dose producing an obvious decrease in locomotor activity, using observational techniques. Groups of 3 mice are given decreasing oral doses at 0.5 log intervals (300, 100, 30 . . . etc.) until no behavioral effects are evident. Decrease of locomotor activity is indicative of general central nervous system depressant activity.

[3] = tested on: amphetamine hyperactivity; test: Mouse Anti-Amphetamine Activity (A.A.); conditions: po, mouse, d-amphetamine sulfate 5 mg/kg sc 1 hour after compound, 60 minutes recording; for ED50: read-out: A.A. (mouse) ED50
Protocol: as §3
Mouse Anti-Amphetamine Activity: Groups of 5 mice are given d-amphetamine sulfate 5 mg/kg sc 1 hour after oral administration of graded doses of test compound. The mice are placed in photocell activity units immediately after amphetamine administration and locomotor activity is recorded for 60 minutes. The ED50 is calculated as the dose causing a 50% reduction in locomotor activity relative to the activity of the amphetamine-treated control mice. Amphetamine antagonism at non-toxic doses appears to correlate with major tranquilizer activity in man.

[4] = tested on: Conditioned Avoidance Response; test: Mouse Conditioned Avoidance Response (C.A.R.); conditions: po, mouse, tested 1, 2, and 4 hours after administration; for ED50: read-out: C.A.R. (mouse) ED50
Protocol: as §1, §2

[5] = tested on: Conditioned Avoidance Response; test: Dog Conditioned Avoidance Response (C.A.R.); conditions: po, dog, 1, 2, and 4 hours after administration; for ED50: Canis lupus familiaris, read-out: C.A.R. (dog) ED50
Protocol: Results given in: mg/kg po/dog
Dog Conditioned Avoidance Response: Dogs are trained to raise a forelimb when presented with a conditioned stimulus (light) in order to avoid an electric shock. Blocks of 10 trials are given to groups of four dogs during a pretreatment period and at 1, 2, and 4 hours after oral administration of test compound. The ED50 values are calculated as the dose causing 50% of the animals to show five or more incorrect responses. Blocking of the C.A.R. at non-toxic doses appears to correlate with major tranquilizer activity in man.

## 3-isobutyl-1,2,3,4,8,9-hexahydropyrido-[4', 3':2,3]indolo[1,7-ab ][1]benzazepine hydrochloride [No. 1, reference compound]
[1]
  Conflict (rat) MED: > 40 mg/kg
taming
  Taming (monkey) MED: > 20 mg/kg
[2]
  C.A.R. (rat) ED50: > 40 mg/kg
Locomotor activity
  Screen (mouse) MED: 100 to 300 mg/kg
[3]
  A.A. (mouse) ED50: > 100 mg/kg

## 3-(1-cyclopropylethyl)-1,2,3,4,8,9-hexahydropyrido[4',3':2,3]indolo[1,7-ab][1]benzazepine hydrochloride [Example 20]
Locomotor activity
  Screen (mouse) MED: 30 to 100 mg/kg

## 1,2,3,4,8,9-hexahydro-3-[(4-methylbicyclo[2.2.2]oct-1-yl)methyl]pyrido[4',3':2,3]indolo[1,7-ab][1]benzazepine hydrochloride [Example 15]
taming
  Taming (monkey) MED: > 10 mg/kg
Locomotor activity
  Screen (mouse) MED: 10 to 30 mg/kg
[3]
  A.A. (mouse) ED50: 3 to 10 mg/kg
[4]
  C.A.R. (mouse) ED50: 10 to 30 mg/kg

## 3-(1-adamantylmethyl)-1,2,3,4,8,9-hexahydropyrido[4',3':2,3]indolo[1,7-ab][1]benzazepine hydrochloride [No. 11]
[1]
  Conflict (rat) MED: > 40 mg/kg
taming
  Taming (monkey) MED: 1 to 3 mg/kg
[2]
  C.A.R. (rat) ED50: 6 mg/kg
Locomotor activity
  Screen (mouse) MED: 3 to 10 mg/kg
[3]
  A.A. (mouse) ED50: 1 mg/kg
[4]
  C.A.R. (mouse) ED50: 1 to 3 mg/kg

## 1,2,3,4,8,9-hexahydropyrido[4', 3':2,3] indolo[1,7-ab][1]benzazepine [Example 1]
[1]
  Conflict (rat) MED: > 40 mg/kg
taming
  Taming (monkey) MED: 20 to 30 mg/kg
[2]
  C.A.R. (rat) ED50: > 40 mg/kg
Locomotor activity
  Screen (mouse) MED: 10 to 30 mg/kg
[3]
  A.A. (mouse) ED50: 10 mg/kg
[4]
  C.A.R. (mouse) ED50: > 40 mg/kg

## 3-(exo-7-norcarylmethyl)-1,2,3,4,8,9-hexahydropyrido[4',3':2,3]indolo[1,7- ab][1]benzazepine hydrochloride [No. 10]
taming
  Taming (monkey) MED: 10 mg/kg
Locomotor activity
  Screen (mouse) MED: 10 to 30 mg/kg
[3]
  A.A. (mouse) ED50: 3 to 10 mg/kg
[4]
  C.A.R. (mouse) ED50: 10 to 30 mg/kg

## CC1(CN2CCc3c(c4cccc5c4n3-c3ccccc3CC5)C2)CC1.Cl [No. 5, 1,2,3,4,8,9-hexahydro-3-[(1-methylcyclopropyl)methyl]pyrido[4',3':2,3]indolo[1,7-ab][1]benzazepine hydrochloride]
[1]
  minimal effective dose: 10 to 20 mg/kg
taming
  minimal effective dose: 10 to 30 mg/kg
Locomotor activity
  minimal effective dose: 10 to 30 mg/kg
[3]
  ED50: 3 to 10 mg/kg
[4]
  ED50: 10 to 30 mg/kg
[5]
  ED50: 10 to 20 mg/kg

## 3-(2-adamantylmethyl)-1,2,3,4,8,9-hexahydropyrido[4',3':2,3]indolo[1,7-ab][1]benzazepine hydrochloride [Example 11]
[2]
  C.A.R. (rat) ED50: > 40 mg/kg
Locomotor activity
  Screen (mouse) MED: 100 to 300 mg/kg
[3]
  A.A. (mouse) ED50: > 100 mg/kg
[4]
  C.A.R. (mouse) ED50: 30 mg/kg

## 1,2,3,4,8,9-hexahydro-3-[(trans-2-methylcyclopropyl)methyl]pyrido[4',3':2,3]indolo[1,7-ab][1]benzazepine hydrochloride [No. 4]
[1]
  Conflict (rat) MED: > 40 mg/kg
taming
  Taming (monkey) MED: 3 to 10 mg/kg
Locomotor activity
  Screen (mouse) MED: 10 to 30 mg/kg
[3]
  A.A. (mouse) ED50: 6 mg/kg
[4]
  C.A.R. (mouse) ED50: 20 mg/kg

## 3-[(2,3-dimethyl-2-cyclopropen-1-yl)methyl]-1,2,3,4,8,9-hexahydropyrido[4',3':2,3]indolo[1,7-ab][1]benzazepine hydrochloride [No. 12]
Locomotor activity
  Screen (mouse) MED: 10 to 30 mg/kg

## CCCC(C)(COC(N)=O)COC(N)=O [meprobamate, reference compound]
[1]; rats cross to obtain food despite earlier shock, dose-related
  decreased fear in the test animals, in words: apparent decreased fear in the test animals

## Cl.c1ccc2c(c1)CCc1cccc3c4c(n-2c13)CCN(CC1CCCC1)C4 [No. 7, 3-(cyclopentylmethyl)-1,2,3,4,8,9-hexahydropyrido[4',3':2,3]indolo[1,7-ab][1]benzazepine hydrochloride]
[1]
  minimal effective dose: > 40 mg/kg
taming
  minimal effective dose: 1 to 3 mg/kg
[2]
  ED50: 30 mg/kg
Locomotor activity
  minimal effective dose: 3 to 10 mg/kg
[3]
  ED50: 2 mg/kg
[4]
  ED50: 20 mg/kg
[5]
  ED50: 6 mg/kg

## 3-(2-butynyl)-1,2,3,4,8,9-hexahydropyrido[4',3':2,3]indolo[1,7-ab][1]benzazepine hydrochloride [No. 20]
[1]
  Conflict (rat) MED: > 40 mg/kg
taming
  Taming (monkey) MED: 1 to 3 mg/kg
Locomotor activity
  Screen (mouse) MED: 10 to 30 mg/kg
[3]
  A.A. (mouse) ED50: 6 mg/kg
[4]
  C.A.R. (mouse) ED50: 10 to 30 mg/kg
[5]
  C.A.R. (dog) ED50: > 40 mg/kg

## 1,2,3,4,8,9-hexahydro-3-[(4-methylbicyclo[2.2.2]oct-2-en-1-yl)methyl]pyrido[4', 3':2,3]indolo[1,7-ab][1]benzazepine hydrochloride [Example 16]
[1]
  Conflict (rat) MED: 10 to 20 mg/kg
taming
  Taming (monkey) MED: 20 mg/kg
[2]
  C.A.R. (rat) ED50: 30 mg/kg
Locomotor activity
  Screen (mouse) MED: 100 to 300 mg/kg
[3]
  A.A. (mouse) ED50: 60 mg/kg
[4]
  C.A.R. (mouse) ED50: 30 to 60 mg/kg
[5]
  C.A.R. (dog) ED50: > 10 mg/kg

## Cl.c1ccc2c(c1)CCc1cccc3c4c(n-2c13)CCN(CC1CCCCC1)C4 [No. 8, 3-(cyclohexylmethyl)-1,2,3,4,8,9-hexahydropyrido[4',3':2,3]indolo[1,7-ab][1]benzazepine hydrochloride]
[1]
  minimal effective dose: > 40 mg/kg
taming
  minimal effective dose: 1 to 3 mg/kg
[2]
  ED50: 30 mg/kg
Locomotor activity
  minimal effective dose: 3 to 10 mg/kg
[3]
  ED50: 2 mg/kg
[4]
  ED50: 20 mg/kg
[5]
  ED50: 10 mg/kg

## 3-[(cis,cis-2,3-dimethylcyclopropyl)methyl]-1,2,3,4,8,9-hexahydropyrido[4',3':2,3]indolo[1,7-ab][1]benzazepine hydrochloride [No. 14]
taming
  Taming (monkey) MED: > 20 mg/kg
Locomotor activity
  Screen (mouse) MED: 10 to 30 mg/kg
[3]
  A.A. (mouse) ED50: 20 mg/kg
[4]
  C.A.R. (mouse) ED50: 20 mg/kg

## Cl.c1ccc2c(c1)CCc1cccc3c4c(n-2c13)CCN(CC1CCC1)C4 [No. 6, 3-(cyclobutylmethyl)-1,2,3,4,8,9-hexahydropyrido[4',3':2,3]indolo[1,7-ab][1]benzazepine hydrochloride]
[1]
  minimal effective dose: > 40 mg/kg
taming
  minimal effective dose: 1 to 3 mg/kg
[2]
  ED50: 4 mg/kg
Locomotor activity
  minimal effective dose: 10 to 30 mg/kg
[3]
  ED50: 20 mg/kg
[4]
  ED50: 6 mg/kg
[5]
  ED50: 20 mg/kg

## 3-[cis-1,6-dimethyl-endo-3-norcaren-7-yl)methyl]-1,2,3,4,8,9-hexahydropyrido[4',3':2,3]indolo[1,7-ab][1]benzazepine [No. 13]
Locomotor activity
  Screen (mouse) MED: 1 to 3 mg/kg

## 3-[(3-cyclohexen-1-yl)methyl]-1,2,3,4,8,9-hexahydropyrido[4',3':2,3]indolo[1,7-ab][1]benzazepine hydrochloride [No. 9]
Locomotor activity
  Screen (mouse) MED: 3 to 10 mg/kg
[3]
  A.A. (mouse) ED50: 5 mg/kg

## C#CCN1CCc2c(c3cccc4c3n2-c2ccccc2CC4)C1.Cl [No. 19, 1,2,3,4,8,9-hexahydro-3-(2-propynyl)pyrido[4',3':2,3]indolo[1,7-ab][1]benzazepine hydrochloride]
Locomotor activity
  minimal effective dose: 10 to 30 mg/kg
[3]
  ED50: 30 to 100 mg/kg
[4]
  ED50: 20 mg/kg
